In patent US6019959A, “Oligomeric compounds that contain perfluoroalkyl, process for their production, and their use in NMR diagnosis” (Schering Aktiengesellschaft, priority 1998, dated 2000):
“Also recorded” adds a separate entry of the source. Where two headings read alike, the source gives them in different places.

Assays:
[1] = Determination of the T1-relaxivity with a Minispec pc 20 in human plasma; type: physicochemical; details: for R^1 (T^1-relaxivity): 0.47 T (20 MHz), 37° C., human plasma, normalized to one metal atom; for relaxivity r1,plasm: plasma
Procedure: Determination of the T^1 -Relaxivity of Selected Compounds
The relaxivity of the following compounds was determined
with a Minispec pc 20 (20 MHz, 0.47 T) at 37° C. in human plasma
and compared to that of Gd-DTPA-polylysine and Magnevist^(R) as
comparison substances. Since the substances according to the
invention contain more than one metal atom, the relaxivity was
normalized to one metal atom for purposes of comparison.

[2] = Retention of the opacifying metal at the injection site; type: in vivo, guinea pig; details: 10 μmol/kg s.c., MW±SD, n=3
Text: After s.c. administration of 10 μmol of total gadolinium (Example 19)/kg of body weight in the guinea pig's paw, the retention of metal at the injection site was studied at different times.
Gd-Concentration [% dose] at the Administration Site (Paw), After Interstitial Administration of 10 μmol/kg (MW±SD, n=3)

[3] = Elimination of the contrast medium after s.c. administration (metal retention in organs); type: in vivo, guinea pig; details: 7 d p.i., 10 μmol/kg s.c., MW±SD, n=2
Text: After subcutaneous administration of 10 μmol of total gadolinium (Example 19)/kg of body weight in the hind paw of the guinea pig, the retention of metal in the liver, in the kidneys and in the spleen was examined 7 days after administration.
Gd Concentration [% of Dose] in the Liver, Kidneys, Spleen (7 d p.i.) After Interstitial Administration of 10 μmol/kg (MW±SD, n=2)

[4] = Lymph node concentration in guinea pigs after subcutaneous administration (ICP-AES); type: in vivo, guinea pig; details: 10 μmol/kg s.c., MW±SD, n=3
Text: The compounds according to the invention meet all of the requirements that are imposed by contrast media in indirect NMR lymphography: good local compatibility, quick removal from the injection site, quick and as complete an elimination as possible from the entire organism. They also show a high concentration over several lymph node stations and thus allow relevant diagnostic assessments. Thus, in the guinea pig model, a high concentration over several lymph node stations (popliteal, inguinal, iliac) after s.c. administration (2.5-10 μmol/kg of body weight, injection in the interdigital spaces of the hind paws) was shown. In especially suitable cases, gadolinium concentrations of, respectively, ≥200 or ≥300 μmol/l were thus obtained in the second (inguinal) and third (iliac) stations. Lymph node concentrations up to 1,000 μmol/l can usually be obtained with the compounds according to the invention.
The gadolinium complex of Example 19 was studied 30 minutes/90 minutes after subcutaneous administration (10 μmol of total gadolinium/kg of body weight, hind paw s.c.) to stimulated guinea pigs (complete Freund adjuvant; in each case 0.1 ml in the right and left upper and lower legs; 2 weeks before administration of the test substance) to determine their lymph node concentration in three successive lymph node stations (popliteal, inguinal, iliac). In this case, the results that are listed below (determination of gadolinium concentration using ICP-AES) are obtained:
Gd-Concentration [μmol/l] in three successive lymph node stations 30 and 90 minutes after interstitial administration of 10 μmol/kg (MW±SD, n=3)

[5] = Blood elimination kinetics after one-time intravenous administration; type: in vivo, rats; details: for Distribution volume Vss (MEAN) / Elimination half-life tβ (MEAN) / Total clearance CLtot (MEAN) / tα (MEAN): two-compartment model, n=3; for distribution volume in comparison to Dy-DTPA / elimination from the blood in comparison to Dy-DTPA: i.v., rats
Procedure: (§1) For this purpose, after one-time intravenous administration (via a caudal vein) of the substances (dose: ≈100 μmol of metal per kg of body weight), the substance concentration in the blood (based on the Gd or Dy content) was determined over a period of up to 120 minutes p.i. using ICP-AES. The pharmacokinetic parameters: distribution volume (Vss), total clearance (CLtot) and elimination half-life (tb) were calculated with a special computer program (TOPFIT 2.0; Thomae, Schering, Godecke), whereby a two-compartment distribution model was used as a basis.
The Gd and Dy contents in the blood were determined using ICP-AES.
as §1, with “metal” for “Gd or Dy”

[6] = Contrast-medium-supported MR angiography; type: in vivo, rats; details: one-time i.v. 50 or 100 μmol/kg, 2.0 tesla
Procedure: The studies on contrast-medium-supported MR angiography were performed on an experimental MRT system (SISCO SIS 85, 2.0 tesla) with a 3 D FLASH technique (10/2.6/40°).
To determine the effectiveness of contrast media for visualizing blood vessels, anesthetized (Rompun®+Ketavet®, 1+1, v/v; ≈1 ml per kg of body weight, i.m.) rats (Han. Wistar; ≈200 g of body weight) were studied by MR tomography.
The MIP (maximum intensity projection) images were calculated from the 3 D FLASH experiments before (left) and directly after one-time i.v. administration of 50 μmol/kg (center) or 100 μmol/kg (right) of the substance of Example 1g.

[7] = In-vivo comparison with an intravascular and an extracellular contrast medium in blocked kidneys (diffusibility); design: species or system rats; details: for Percentage of the dose that remains in the blood space: i.v., blocked renal vessels, compound 2 set at 100%
Procedure: As test animals, three 250 g male (Schering-SPF) rats were used. The renal vessels in the animals were blocked to prevent renal elimination and, assuming that fecal elimination is negligible, to obtain a measure of the diffusibility of the formulation according to the invention from the blood into the surrounding tissue. 0.5 ml (in each case 10 mmol/l) of the following contrast medium solution was intravenously administered per animal: a mixture consisting of 1 part each of the compound of Example 1g, named compound 1 below, of intravascular contrast medium Eu-DTPA-albumin, named compound 2 below and of extracellular contrast medium Dy-DTPA, named compound 3 below. Via a catheter in the common carotid artery, blood samples were taken at the following times: 15, 30, 45, 60, 90 seconds; 3, 5, 10, 15 minutes p.i. In the blood samples that were obtained, in each case the concentrations of gadolinium (Gd), europium (Eu) and dysprosium (Dy) were measured in parallel using atom emission spectrometry (ICP-AES). The proportion of the intravascular contrast medium compound 2 (Eu) that remains in the blood space was set at 100%. It was possible to compare the proportion of the formulation according to the invention of compound 1 (Gd) and compound 3 (Dy, extracellular comparison substance) that remained in the blood space by the different labeling in the same animal, and the proportion was set as a percentage of the concentration of compound 2.

[8] = rat, in vivo; cited from earlier work
[9] = cited from earlier work
[10] = Table 4, i.v. ≈100 μmol metal/kg
[11] = Table 3, i.v. ≈100 μmol metal/kg

For “1,4,7-Tris{1,4,7-tris(N-carboxylatomethyl)-10-[N-(4,7-diaza-3,6,9-trioxo)-nonane-2,9-diyl]-1,4,7,10-tetraazacyclododecane, Gd complex}-10-[N-acetyl-(2-amino-N-ethyl-N-perfluoro-octylsulfonyl)]-1,4,7,10-tetraazacyclododecane [Example 19]”, the “R^1 (T^1-relaxivity)” value [1] was 21.4 L/mmol/s, the “relaxivity r1,plasm” value [1] was “≈ 19.5 l*mmol^-1 *s^-1” and the “Gadolinium concentration at the injection site (paw)” value (“Gadolinium concentration” for short) ([2]; 30 minutes p.i.) was 48.4 ± 10.4 % of dose. For the same compound, the “Gadolinium concentration” value ([2]; 90 minutes p.i.) was 8.0 ± 1.7 % of dose, the “Gadolinium concentration” value ([2]; 7 days p.i.) was 0.7 ± 0.6 % of dose and the “Gadolinium content in the organs, kidneys” value [3] was 0.06 ± 0.04 % dose. For the same compound, the “Gadolinium content in the organs, liver” value [3] was 0.09 ± 0.09 % dose, the “Gadolinium content in the organs, spleen” value [3] was 0.00 ± 0.01 % dose and the concentration ([4]; 30 minutes p.i., read-out: Gd concentration, blood) was 24 ± 3 µM. It also gave a concentration ([4]; 30 minutes p.i., read-out: Gd concentration, iliac lymph nodes) of 50 ± 18 µM, a concentration ([4]; 30 minutes p.i., read-out: Gd concentration, inguinal profund lymph nodes) of 43 ± 41 µM and a concentration ([4]; 30 minutes p.i., read-out: Gd concentration, popliteal lymph nodes) of 345 ± 319 µM. The concentration ([4]; 30 minutes p.i., read-out: Gd concentration, urine) was 261 ± 167 µM, the concentration ([4]; 90 minutes p.i., read-out: Gd concentration, blood) was 25 ± 4 µM and the concentration ([4]; 90 minutes p.i., read-out: Gd concentration, iliac lymph nodes) was 20 ± 8 µM. It also gave a concentration ([4]; 90 minutes p.i., read-out: Gd concentration, inguinal profund lymph nodes) of 9 ± 2 µM, a concentration ([4]; 90 minutes p.i., read-out: Gd concentration, popliteal lymph nodes) of 75 ± 20 µM and a concentration ([4]; 90 minutes p.i., read-out: Gd concentration, urine) of 348 ± 119 µM. For the same compound, the “Distribution volume Vss (MEAN)” value [5, 10] was 0.12 Ukg, the “Elimination half-life tβ (MEAN)” value [5, 10] was 1.49 h and the “Total clearance CLtot (MEAN)” value [5, 10] was 0.94 mL·kg·min. The “tα (MEAN)” value [5, 10] was 2.52 min, the “distribution volume in comparison to Dy-DTPA” value [5] was “smaller distribution volume” and the “elimination from the blood in comparison to Dy-DTPA” value [5] was “significantly slower elimination from the blood”.
For `CC(C(=O)NCC(=O)NCC(=O)N1CCN(C(=O)CNC(=O)CNC(=O)C(C)N2CCN(CC(=O)[O-])CCN(CC(=O)[O-])CCN(CC(=O)[O-])CC2)CCN(C(=O)COCCC(F)(F)C(F)(F)C(F)(F)C(F)(F)C(F)(F)C(F)(F)C(F)(F)C(F)(F)F)CCN(C(=O)CNC(=O)CNC(=O)C(C)N2CCN(CC(=O)[O-])CCN(CC(=O)[O-])CCN(CC(=O)[O-])CC2)CC1)N1CCN(CC(=O)[O-])CCN(CC(=O)[O-])CCN(CC(=O)[O-])CC1.[Gd+3].[Gd+3].[Gd+3]` (centres unmarked) [Example 1g, 1,4,7-Tris{,1,4,7-tris(N-carboxylatomethyl)-10-(N-1-methyl-3,6-diaza-2,5,8-trioxo-octane-1,8-diyl)-1,4,7,10-tetraazacyclododecane, Gdcomplex}-10-(N-2H,2H,4H,4H,5H,5H-3-oxa-perfluoro-tridecanoyl)-1,4,7,10-tetraazacyclododecane], the “R^1 (T^1-relaxivity)” value [1] was 19.5 L/mmol/s, the “relaxivity r1,plasm” value [1] was “≈ 19.5 l*mmol^-1 *s^-1” and the “signal in the blood vessels in MR angiography (3 D FLASH, MIP)” value [6] was “pronounced signal increase in the blood vessels”. For the same compound, the “Percentage of the dose that remains in the blood space” value (“Percentage of the dose that remains” for short) ([7]; 30 seconds p.i.) was 84%, the “Percentage of the dose that remains” value ([7]; 3 minutes p.i.) was 62% and the “Percentage of the dose that remains” value ([7]; 10 minutes p.i.) was 44%. The “diffusibility from the vascular space into the surrounding tissue” value ([7]; compared with compound 2 and compound 3, listed as compound 1) was “slower during the entire test period; also recorded: significantly lower compared to the free diffusible, extracellular compound 3”, the “Distribution volume Vss (MEAN)” value [5, 11] was 0.09 Ukg and the “Elimination half-life tβ (MEAN)” value [5, 11] was 2.813 h. For the same compound, the “Total clearance CLtot (MEAN)” value [5, 11] was 0.41 mU (min*kg), the “tα (MEAN)” value [5, 11] was 4.06 min and the “distribution volume in comparison to Dy-DTPA” value [5] was “smaller distribution volume”. The “elimination from the blood in comparison to Dy-DTPA” value [5] was “significantly slower elimination from the blood”.
In the case of Gd-DTPA-polylysine [reference compound], the “R^1 (T^1-relaxivity)” value [1] is given as 16.8 L/mmol/s and the excretion route [8] is given as “excreted through the kidneys unaltered by glomerular filtration”.
In the case of albumin-Gd-DTPA, the “concentration in the liver tissue” value ([9]; 24 hours after intravenous injection) is listed as ~30 % of the dose and the dose eliminated ([9]; within 24 hours) is listed as 20 % of the dose.
